From patent US20240208970A1, “SUBSTITUTED HYDANTOIN COMPOUNDS, METHODS FOR PREPARATION THEREOF AND USE THEREOF IN THE TREATMENT AND/OR PREVENTION OF A CORONA VIRUS DISEASE” (priority 2021, published 2024)

Target: SARS-CoV-2 M^pro protease (Severe acute respiratory syndrome coronavirus 2 (2019-nCoV) (SARS-CoV-2), UniProt P0DTD1)
Assay: biochemical
Format: biochemical
Settings: Table 5A; M^pro 75 nM, substrate 10 μM

Structure (SMILES)	IC50 [nM]
Cc1ccncc1N1C(=O)NC2(CC(c3ccccc3)C2)C1=O (centres unmarked) [Compound 11, 7-(4-methylpyridin-3-yl)-2-phenyl-5,7-diazaspiro[3.4]octane-6,8-dione]	2300

Same assay, conditions: Tables 5B-5E; M^pro 75 nM, substrate 10 μM

Structure (SMILES)	IC50 [nM]
O=C1NC2(CC(c3ccsc3Cl)C2)C(=O)N1c1cncc2ccccc12 (single isomer, unassigned) [Compound 41, 2-(2-chlorothiophen-3-yl)-7-(isoquinolin-4-yl)-5,7-diazaspiro[3.4]octane-6,8-dione]	81
O=C1NC2(CC(c3ccccc3Cl)C2)C(=O)N1c1cccnn1 (centres unmarked) [Compound 81, 2-(2-chlorophenyl)-7-(pyridazin-3-yl)-5,7-diazaspiro[3.4]octane-6,8-dione]	419
COc1ccccc1C1CC2(C1)NC(=O)N(c1cncc3ccccc13)C2=O (centres unmarked) [Compound 20, 7-(isoquinolin-4-yl)-2-(2-methoxyphenyl)-5,7-diazaspiro[3.4]octane-6,8-dione]	477
CN1C(=O)N(c2cncc3ccccc23)C(=O)C12CC(c1ccccc1Br)C2 (centres unmarked) [Compound 67, 2-(2-bromophenyl)-7-(isoquinolin-4-yl)-5-methyl-5,7-diazaspiro[3.4]octane-6,8-dione]	140
O=C1N(c2cncc3ccccc23)C(=O)C2(CC(C3CCC3)C2)N1Cc1ccccn1 (centres unmarked) [Compound 76, 2-cyclobutyl-7-(isoquinolin-4-yl)-5-(pyridin-2-ylmethyl)-5,7-diazaspiro[3.4]octane-6,8-dione]	2470
CC1(c2ccccc2Cl)CC2(C1)NC(=O)N(c1cncc3ccccc13)C2=O (centres unmarked) [Compound 96, 2-(2-chlorophenyl)-7-(isoquinolin-4-yl)-2-methyl-5,7-diazaspiro[3.4]octane-6,8-dione]	408
CC1(c2ccc(F)cc2Cl)CC2(C1)NC(=O)N(c1cncc3ccccc13)C2=O (single isomer, unassigned) [Compound 83, 2-(2-chloro-4-fluorophenyl)-7-(isoquinolin-4-yl)-2-methyl-5,7-diazaspiro[3.4]octane-6,8-dione]	241
O=C1NC2(CC(c3sccc3Br)C2)C(=O)N1c1cncc2ccccc12 (single isomer, unassigned) [Compound 44, 2-(3-bromothiophen-2-yl)-7-(isoquinolin-4-yl)-5,7-diazaspiro[3.4]octane-6,8-dione]	81
O=C1NC2(CC(c3ccccc3F)C2)C(=O)N1c1cncc2ccccc12 (centres unmarked) [Compound 19, 2-(2-fluorophenyl)-7-(isoquinolin-4-yl)-5,7-diazaspiro[3.4]octane-6,8-dione]	326
COc1ccnc(F)c1N1C(=O)NC2(CC(c3ccccc3Cl)C2)C1=O (centres unmarked) [Compound 91, 2-(2-chlorophenyl)-7-(2-fluoro-4-methoxypyridin-3-yl)-5,7-diazaspiro[3.4]octane-6,8-dione]	> 50000
O=C1NC2(CC(OCc3ccccc3)C2)C(=O)N1c1cncc2ccccc12 (centres unmarked) [Compound 48, 2-(benzyloxy)-7-(isoquinolin-4-yl)-5,7-diazaspiro[3.4]octane-6,8-dione]	2580
O=C1NC2(CC(c3cc(F)c(F)cc3Cl)C2)C(=O)N1c1cncc2ccccc12 (centres unmarked) [Compound 87, 2-(2-chloro-4,5-difluorophenyl)-7-(isoquinolin-4-yl)-5,7-diazaspiro[3.4]octane-6,8-dione]	115
N#Cc1ccccc1C1CC2(C1)NC(=O)N(c1cncc3ccccc13)C2=O (centres unmarked) [Compound 24, 2-(7-(isoquinolin-4-yl)-6,8-dioxo-5,7-diazaspiro[3.4]octan-2-yl)benzonitrile]	86
CN1C(=O)N(c2cncc3ccccc23)C(=O)C12CC(c1ccccc1Cl)C2 (centres unmarked) [Compound 68, 2-(2-chlorophenyl)-7-(isoquinolin-4-yl)-5-methyl-5,7-diazaspiro[3.4]octane-6,8-dione]	453
O=C1NC2(CC(c3ccccc3F)C2)C(=O)N1c1cncc2ccccc12 (centres unmarked) [Compound 18, 2-(2-fluorophenyl)-7-(isoquinolin-4-yl)-5,7-diazaspiro[3.4]octane-6,8-dione]	335
O=C(CN1C(=O)N(c2cncc3ccccc23)C(=O)C12CC(C1CCC1)C2)c1ccccn1 (centres unmarked) [Compound 73, 2-cyclobutyl-7-(isoquinolin-4-yl)-5-(2-oxo-2-(pyridin-2-yl)ethyl)-5,7-diazaspiro[3.4]octane-6,8-dione]	1440
CC1(c2ccccc2Cl)CC2(C1)NC(=O)N(c1cncc3ccccc13)C2=O (centres unmarked) [Compound 95, 2-(2-chlorophenyl)-7-(isoquinolin-4-yl)-2-methyl-5,7-diazaspiro[3.4]octane-6,8-dione]	69
O=C1CCCN1CN1C(=O)N(c2cncc3ccccc23)C(=O)C12CC(C1CCC1)C2 (centres unmarked) [Compound 78, 2-cyclobutyl-7-(isoquinolin-4-yl)-5-((2-oxopyrrolidin-1-yl)methyl)-5,7-diazaspiro[3.4]octane-6,8-dione]	3060
O=C1NC2(CC(c3cccc(F)c3Cl)C2)C(=O)N1c1cncc2ccccc12 (single isomer, unassigned) [Compound 30, 2-(2-chloro-3-fluorophenyl)-7-(isoquinolin-4-yl)-5,7-diazaspiro[3.4]octane-6,8-dione]	372
COc1ccc2cncc(N3C(=O)NC4(CC(C5CCC5)C4)C3=O)c2c1 (centres unmarked) [Compound 57, 2-cyclobutyl-7-(6-methoxyisoquinolin-4-yl)-5,7-diazaspiro[3.4]octane-6,8-dione]	340
O=C1NC2(CC(c3c(Cl)cccc3Cl)C2)C(=O)N1c1cncc2ccccc12 (single isomer, unassigned) [Compound 28, 2-(2,6-dichlorophenyl)-7-(isoquinolin-4-yl)-5,7-diazaspiro[3.4]octane-6,8-dione]	291
CN1C(=O)N(c2cncc3ccccc23)C(=O)C12CC(C1CCC1)C2 (centres unmarked) [Compound 69, 2-cyclobutyl-7-(isoquinolin-4-yl)-5-methyl-5,7-diazaspiro[3.4]octane-6,8-dione]	562
O=C1NC2(CC(c3sccc3Cl)C2)C(=O)N1c1cncc2ccccc12 (single isomer, unassigned) [Compound 43, 2-(3-chlorothiophen-2-yl)-7-(isoquinolin-4-yl)-5,7-diazaspiro[3.4]octane-6,8-dione]	59
CCN1C(=O)N(c2cncc3ccccc23)C(=O)C12CC(C1CCC1)C2 (centres unmarked) [Compound 75, 2-cyclobutyl-5-ethyl-7-(isoquinolin-4-yl)-5,7-diazaspiro[3.4]octane-6,8-dione]	2000
O=C1NC2(CC(c3ccsc3Cl)C2)C(=O)N1c1cncc2ccccc12 (single isomer, unassigned) [Compound 40, 2-(2-chlorothiophen-3-yl)-7-(isoquinolin-4-yl)-5,7-diazaspiro[3.4]octane-6,8-dione]	304
O=C1NC2(CC(c3cccc(Cl)c3)C2)C(=O)N1c1cncc2ccccc12 (centres unmarked) [Compound 25, 2-(3-chlorophenyl)-7-(isoquinolin-4-yl)-5,7-diazaspiro[3.4]octane-6,8-dione]	931
O=C1NC2(CC(c3ccccc3Cl)C2)C(=O)N1c1cncc2nc[nH]c12 (centres unmarked) [Compound 97, 2-(2-chlorophenyl)-7-(1H-imidazo[4,5-c]pyridin-7-yl)-5,7-diazaspiro[3.4]octane-6,8-dione]	287
O=C1NC2(CC(c3ccccc3Cl)C2)C(=O)N1c1cncc2[nH]c(=O)[nH]c12 (centres unmarked) [Compound 98, 2-(2-chlorophenyl)-7-(2-oxo-2,3-dihydro-1H-imidazo[4,5-c]pyridin-7-yl)-5,7-diazaspiro[3.4]octane-6,8-dione]	1380
